From patent publication US6881741B2 (ViroChem Pharma Inc., priority 2001, dated 2005)

These molecules were tested against recombinant HCV NS5B (HCV RNA-dependent RNA polymerase) (Hepatitis C virus genotype 1b, UniProt P26663) (assay: biochemical). Conditions: HCV polymerase activity, list of compounds of Example 27; read-out: IC50 (polymerase activity).
recombinant HCV NS5B (HCV RNA-dependent RNA polymerase), sequence (P26663 2420-3010 limits assumed): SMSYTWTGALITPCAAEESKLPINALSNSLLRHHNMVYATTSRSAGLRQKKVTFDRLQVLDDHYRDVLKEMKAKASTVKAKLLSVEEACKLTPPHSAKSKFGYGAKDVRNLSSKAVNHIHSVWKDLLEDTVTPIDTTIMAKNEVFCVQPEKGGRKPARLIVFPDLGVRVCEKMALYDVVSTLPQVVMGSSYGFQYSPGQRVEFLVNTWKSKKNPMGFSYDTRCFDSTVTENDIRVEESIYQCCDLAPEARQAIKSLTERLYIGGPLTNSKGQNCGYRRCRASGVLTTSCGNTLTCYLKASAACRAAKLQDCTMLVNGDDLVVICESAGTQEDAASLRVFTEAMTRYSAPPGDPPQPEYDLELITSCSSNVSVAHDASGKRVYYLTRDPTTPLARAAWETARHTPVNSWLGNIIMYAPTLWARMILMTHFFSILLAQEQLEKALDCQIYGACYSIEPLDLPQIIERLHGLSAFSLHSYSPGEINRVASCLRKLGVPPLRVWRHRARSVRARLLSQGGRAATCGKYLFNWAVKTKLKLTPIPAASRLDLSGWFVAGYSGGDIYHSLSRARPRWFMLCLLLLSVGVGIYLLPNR

Row | Structure (SMILES) | IC50
1 | O=C(O)c1sc(-c2ccccc2)cc1N(Cc1ccccc1)C(=O)C1CCC1 [Compound 489, 3-(BENZYL-CYCLOBUTANECARBONYL- AMINO)-5-PHENYL-THIOPHENE-2- CARBOXYLIC ACID] | < 5 µM
2 | CC(C)C(=O)N(Cc1ccc(Cl)cc1)c1cc(-c2ccccc2)sc1C(=O)O [Compound 457, 3-[(4-CHLORO-BENZYL)-ISOBUTYRYL- AMINO]-5-PHENYL-THIOPHENE-2- CARBOXYLIC ACID] | 5 to 20 µM
3 | CC(=O)N(Cc1ccccc1)c1cc(-c2ccccc2)sc1C(=O)O [Compound 450, 3-(ACETYL-BENZYL-AMINO)-5-PHENYL- THIOPHENE-2-CARBOXYLIC ACID] | < 5 µM
4 | CC(CNC(=O)OC(C)(C)C)N(C(=O)c1ccc(Cl)cc1Cl)c1cc(-c2ccccc2)sc1C(=O)O (stereo not shown) [Compound 545, 3-[(2-TERT-BUTOXYCARBONYLAMINO-1- METHYL-ETHYL)-(2,4-DICHLORO- BENZOYL)-AMINO]-5-PHENYL- THIOPHENE-2-CARBOXYLIC ACID] | < 5 µM
5 | CC(C)C(=O)N(Cc1ccc(F)cc1F)c1cc(-c2ccccc2)sc1C(=O)O [Compound 485, 3-[(2,4-DIFLUORO-BENZYL)- ISOBUTYRYL-AMINO]-5-PHENYL- THIOPHENE-2-CARBOXYLIC ACID] | 5 to 20 µM

Same assay, conditions: related polymerase activity (Example 27 list); read-out: IC50

Row | Structure (SMILES) | IC50
6 | CCOC(=O)c1c(C)[nH]c(C)c1S(=O)(=O)Nc1cc(-c2ccccc2)sc1C(=O)O [Compound 167, 4-(2-CARBOXY-5-PHENYL-THIOPHEN-3-YLSULFAMOYL)-2,5-DIMETHYL-1H-PYRROLE-3-CARBOXYLIC ACID ETHYL ESTER] | 5 to 20 µM
7 | Cc1ccc(C(=O)N(C)c2cc(-c3ccc(N)cc3)sc2C(=O)O)cc1 [Compound 200, 5-(4-AMINO-PHENYL)-3-[METHYL-(4-METHYL-BENZOYL)-AMINO]-THIOPHENE-2-CARBOXYLIC ACID] | 5 to 20 µM
8 | Cc1ccccc1S(=O)(=O)Nc1cc(-c2cccc(Cl)c2)sc1C(=O)O [Compound 65, 5-(3-CHLORO-PHENYL)-3-(TOLUENE-2-SULFONYLAMINO)-THIOPHENE-2-CARBOXYLIC ACID] | < 5 µM
9 | C=CCN(C(=O)Cc1ccc(Cl)c(Cl)c1)c1cc(-c2ccccc2)sc1C(=O)O [Compound 350, 3-{ALLYL-[2-(3,4-DICHLORO-PHENYL)- ACETYL]-AMINO}-5-PHENYL-THIOPHENE- 2-CARBOXYLIC ACID] | 5 to 20 µM
10 | CCc1ccc(-c2cc(NS(=O)(=O)c3ccccc3C)c(C(=O)O)s2)cc1 [Compound 232, 5-(4-ETHYL-PHENYL)-3-(TOLUENE-2-SULFONYLAMINO)-THIOPHENE-2-CARBOXYLIC ACID] | < 5 µM
11 | O=C(O)c1sc(-c2ccccc2)cc1N(C(=O)c1ccc(Cl)cc1Cl)C1CC1 [Compound 333, 3-[CYCLOPROPYL-(2,4-DICHLORO- BENZOYL)-AMINO]-5-PHENYL- THIOPHENE-2-CARBOXYLIC ACID] | < 5 µM
12 | CC(C)N(C(=O)c1ccc(Cl)cc1Cl)c1cc(-c2ccc(F)cc2)sc1C(=O)O [Compound 356, 3-[(2,4-DICHLORO-BENZOYL)- ISOPROPYL-AMINO]-5-(4-FLUORO- PHENYL)-THIOPHENE-2-CARBOXYLIC ACID] | < 5 µM
13 | Cc1ccccc1S(=O)(=O)Nc1cc(-c2ccccc2C(F)(F)F)sc1C(=O)O [Compound 106, 3-(TOLUENE-2-SULFONYLAMINO)-5-(2-TRIFLUOROMETHYL-PHENYL)-THIOPHENE-2-CARBOXYLIC ACID] | 5 to 20 µM
14 | CC(C)N(C(=O)c1ccc(Cl)nc1)c1cc(-c2ccccc2)sc1C(=O)O [Compound 246, 3-[(6-CHLORO-PYRIDINE-3-CARBONYL)-ISOPROPYL-AMINO]-5-PHENYL-THIOPHENE-2-CARBOXYLIC ACID] | > 20 µM
15 | Cc1ccccc1S(=O)(=O)Nc1cc(-c2sccc2C)sc1C(=O)O [Compound 105, 3′-METHYL-4-(TOLUENE-2-SULFONYLAMINO)-[2,2′]BITHIOPHENYL-5-CARBOXYLIC ACID] | 5 to 20 µM
16 | O=C(O)c1sc(-c2ccccc2)cc1NS(=O)(=O)c1ccc(Cl)cc1 [Compound 18, 3-(4-CHLORO-BENZENESULFONYLAMINO)-5-PHENYL-THIOPHENE-2-CARBOXYLIC ACID] | < 5 µM
